{
  "source": "paper PMC7663263",
  "about": "(Molecules, 2020)",
  "key": {"[1]": {"system": "T. b. gambiense (ITMAP/1893)", "assay": "Anti-trypanosomal activity, T. b. gambiense trypomastigotes (resazurin)", "assay_type": "cell-based, Trypanosoma brucei gambiense", "conditions": "72 h, read-out: T. b. gambiense IC50 (µM) ± SD", "experimental": "(§1) Anti-trypanosomal activity: T. b. brucei Squib-427 strain (suramin-sensitive) and T. b. gambiense (ITMAP/1893) were cultured at 37 °C and 5% CO2 in HMI-9 medium supplemented with 10% FCS [90]. About 10^4 trypomastigotes/well were added to each well and parasite growth was assessed after 72 h at 37 °C by adding resazurin and reading at ex 550 nm, em 590 nm. Suramin was included as reference drug for T. b. brucei and pentamidine for T. b. gambiense."}, "[2]": {"system": "Leishmania donovani LV9 axenic amastigotes", "assay": "L. donovani LV9 axenic amastigotes (resazurin)", "assay_type": "cell-based", "conditions": "read-out: Leishmania donovani LV9 Axenic Amastigotes IC50 (µM) ± SD", "experimental": "In vitro anti-leishmanial evaluation was perfomed on both axenic and intramacrophage L. donovani amastigotes as previously described. […] Briefly, compounds were distributed in 96-well plates using 2-fold dilutions in 100 µL PYG medium. A. castellanii trophozoites were added to each well at 5 × 10^4 amoeba/mL in 200 µL final volume. L. donovani axenic amastigotes were added to each well at 10^6 parasites/mL in 200 µL final volume. After 72 h incubation at 27 °C, 20 µL of 1 mM resazurin was added to each well and further incubated at 27 °C for 8 h for A. castellanii and for 24 h for L. donovani axenic amastigotes. In living cells, resazurin is reduced in resorufin. This conversion is monitored by measuring the absorbance at specific wavelengths of resorufin (570 nm) and resazurin (600 nm) using a microplate reader (Labsystems Multiskan MS, McLean, VA, USA). In this assay, the activity was expressed in IC50. Miltefosine and pentamidine were used as reference drugs. All experiments were performed in three independent experiments."}, "[3]": {"system": "BL3 cells", "assay_type": "cell-based, bovine", "experimental": "(§2) Theileria annulata culture: The TBL3 cell line was derived by in vitro infection of the spontaneous bovine B-lymphosarcoma cell line BL3 with the Hissar stock of T. annulata. B cell characteristics of the lines have been described. The cells are maintained at 37 °C under 5% CO2, in RPMI medium supplemented with 10% FCS, 25 mM Hepes, 4 mM L-glutamine, 100 μg/mL of streptomycin, 100 IU/mL of penicillin and […] 2-mercapthoethanol.\n(§3) Cells were cultured in 12-well plates at an initial density of 200,000 cells per well in duplicate for each condition. […] The cells were cultured in 12-well plates at an initial density of 200,000 cells per well and drug was added every 24 h. To be able to compare the results, a drug-free control was also performed. Cell counting was done at 24, 72 and 96 h using the trypan blue method."}, "[4]": {"system": "L. infantum MHOM/MA (BE)/67 amastigotes", "assay": "Anti-leishmanial activity, L. infantum amastigotes in primary peritoneal mouse macrophages", "assay_type": "cell-based, Leishmania infantum", "conditions": "amastigotes in primary peritoneal mouse macrophages, 5 days; read-out: Leishmania infantum IC50 (µM) ± SD", "experimental": "Anti-leishmanial activity: L. infantum MHOM/MA (BE)/67 amastigotes were collected from the spleen of an infected donor hamster and used to infect primary peritoneal mouse macrophages grown in a 96-well plate. After 2 days outgrowth, 5 × 10^5 amastigotes were added to each well and incubated for 2 h at 37 °C. The compounds were subsequently added and the plates were further incubated for 5 days at 37 °C and 5% CO2. Parasite burdens (mean number of amastigotes/macrophage) were microscopically assessed on 500 cells after Giemsa staining and expressed as a percentage of the blank controls. Miltefosine was included as reference drug. The use of laboratory rodents was carried out in accordance to all mandatory guidelines (EU directives, including the Revised Directive 2010/63/EU on the Protection of Animals used for Scientific Purposes that came into force on 1 January 2013, and the declaration of Helsinki in its latest version) and was approved by the Ethical Committee of the University of Antwerp, Belgium [UA-ECD 2011–77 (17-02-2012 and UA-ECD 2015-90]."}, "[5]": {"system": "T. b. brucei Squib-427 strain", "assay": "Anti-trypanosomal activity, T. b. brucei trypomastigotes (resazurin)", "assay_type": "cell-based, Trypanosoma brucei brucei", "conditions": "72 h", "experimental": "as §1"}, "[6]": {"system": "adult female B. pahangi worms", "assay": "Adult in vitro Brugia pahangi motility assay (Worminator)", "assay_type": "cell-based", "conditions": "for Inhibition of Motility (%) Day 1 / Inhibition of Motility (%) Day 2 / Inhibition of Motility (%) Day 3 / Inhibition of Motility (%) Day 6: female B. pahangi, n = 4 worms; for IC50: adult female Brugia pahangi, worminator motility assay, six-point serial dilution", "experimental": "Adult in vitro Brugia pahangi assay: Adult female B. pahangi worms were kindly provided by Dr. Brenda Beerntsen, University of Missouri, Columbia, MO. Individual female worms were assayed in 500 μL of culture medium (RPMI-1640 with 25 mM HEPES, 2.0 g/L NaHCO3, 5% heat-inactivated FBS and antibiotic/antimycotic solution) in 24-well plates. Worms treated with 1% DMSO served as negative control and there were four replicates per compound. Worms were maintained at 37 °C in a 5% CO2 incubator for the duration of the assay. Individual worm movement was assessed from day 1–6 using the Worminator [55], which reports worm motility as mean movement units (MMU), a measure of pixels displaced. MMUs are then used to calculate percent inhibition of worm motility compared to control worms."}, "[7]": {"system": "TBL3 cells (BL3 infected with T. annulata)", "assay": "Proliferation test on Theileria annulata-infected cells (TBL3)", "assay_type": "cell-based, bovine / Theileria annulata", "conditions": "0.5 μM", "experimental": "as §2, §3"}, "[8]": {"system": "O. ochengi adult male", "assay": "Onchocerca ochengi adult male worm motility assay", "assay_type": "cell-based", "conditions": "10 μM", "experimental": "Onchocerca ochengi adult worm assays: For O. ochengi worm assays, subcutaneous nodules containing adult O. ochengi worms were removed from the hides of infected cows collected at abattoirs in Douala, Cameroon. Masses were incubated in 4 mL of complete culture medium (RPMI-1640, 5% newborn calf serum, 200 units/mL penicillin, 200 μg/mL streptomycin and 2.5 μg/mL amphotericin B) in standard 12-well culture plates and maintained in a 37 °C, 5% CO2 incubator overnight during which time the adult males migrated out of the masses while the females remained in the nodules. Compound and control wells (worms in 1% DMSO) were tested in quadruplicate and experiments were repeated twice on different days. Cultures were terminated on day 7. […] Adult female worm viability was assessed on day 7 by the standard MTT/formazan assay in which each nodular mass was placed in a well of a 48-well plate containing 500 μL of 0.5 mg/mL MTT (Sigma-Aldrich) in culture medium. Viability was evaluated visually by the extent to which the female worm mass was stained with MTT. Mean percent inhibition of formazan formation was calculated relative to the negative control worm masses after 7 days in culture."}, "[9]": {"system": "BL3 cells", "assay": "Proliferation test on non-infected BL3 cells", "assay_type": "cell-based, bovine", "conditions": "[…] and 0.5 μM", "experimental": "as §2, §3"}},
  "note": "Read-outs that look alike come from different tables or passages of the source.",
  "data": [
    {"molecule": "CC(=O)OCC1OC([S][Au][PH]2(c3ccccc3)C(c3ccccn3)=CC=C2c2ccccn2)C(OC(C)=O)C(OC(C)=O)C1OC(C)=O", "note": "[GoPI-sugar, 1-thio-β-D-glucopyranose 2,3,4,6-tetraacetato-S-Au{1-phenyl-2,5-di(2-pyridyl)phosphole}]", "values": [
      {"measurement": "IC50", "setting": "[1]", "value": "1.11 ± 0.12", "unit": "µM"},
      {"measurement": "IC50", "setting": "[2]", "value": "1.45 ± 0.07", "unit": "µM"},
      {"measurement": "CC50", "setting": "[3]", "value": "~500", "unit": "nM"},
      {"measurement": "IC50", "setting": "[4]", "value": 2.38, "unit": "µM"},
      {"measurement": "IC50", "setting": "[5]", "value": 1830, "unit": "nM"},
      {"measurement": "Inhibition of Motility (%) Day 1", "setting": "[6]; 1 μM", "value": 20, "unit": "%"},
      {"measurement": "Inhibition of Motility (%) Day 2", "setting": "[6]; 1 μM", "value": 16, "unit": "%"},
      {"measurement": "Inhibition of Motility (%) Day 3", "setting": "[6]; 1 μM", "value": 22, "unit": "%"},
      {"measurement": "Inhibition of Motility (%) Day 6", "setting": "[6]; 1 μM", "value": 48, "unit": "%"},
      {"measurement": "Inhibition of Motility (%) Day 1", "setting": "[6]; 3 μM", "value": 24, "unit": "%"},
      {"measurement": "Inhibition of Motility (%) Day 2", "setting": "[6]; 3 μM", "value": 41, "unit": "%"},
      {"measurement": "Inhibition of Motility (%) Day 3", "setting": "[6]; 3 μM", "value": 40, "unit": "%"},
      {"measurement": "Inhibition of Motility (%) Day 6", "setting": "[6]; 3 μM", "value": 96, "unit": "%"},
      {"measurement": "Inhibition of Motility (%) Day 1", "setting": "[6]; 10 μM", "value": 91, "unit": "%"},
      {"measurement": "Inhibition of Motility (%) Day 2", "setting": "[6]; 10 μM", "value": 98, "unit": "%"},
      {"measurement": "Inhibition of Motility (%) Day 3", "setting": "[6]; 10 μM", "value": 100, "unit": "%"},
      {"measurement": "Inhibition of Motility (%) Day 6", "setting": "[6]; 10 μM", "value": 99, "unit": "%"},
      {"measurement": "IC50", "setting": "[6]; read-out: IC50 (µM) Day 2", "value": 2.8, "unit": "µM"},
      {"measurement": "IC50", "setting": "[6]; read-out: IC50 (µM) Day 3", "value": 3.9, "unit": "µM"},
      {"measurement": "IC50", "setting": "[6]; read-out: IC50 (µM) Day 6", "value": 1.7, "unit": "µM"},
      {"measurement": "time at which the antiproliferative effect occurred", "setting": "[7]; TBL3 cells", "value": 24, "unit": "h"},
      {"measurement": "number of TBL3 cells per well", "setting": "[7]; first 24 h, initial density 200,000 cells per well", "value": "200,000 cells per well"},
      {"measurement": "% Inhibition of Motility O. ochengi Adult Male Day 5", "setting": "[8]", "value": 100, "unit": "%"},
      {"measurement": "proliferation of BL3 compared to untreated BL3 cells", "setting": "[9]", "value": "dampened"}
    ]}
  ]
}
